Experimental data from patent US20170190744A1 (Vicuron Pharmaceuticals, Inc., priority 2015, published 2017).

Experiments:
human hepatic microsomes = format: in vitro ADME
Gram-positive pathogen = assay: Phase II SSTI trial: microbiologic response, all organisms; format: in vivo, human; settings: microbiologically-evaluable population
Description: (§1) Microbiological outcome, a secondary efficacy variable, was assessed in the subpopulation of patients who had microbiologically documented SSTI (i.e., at least one identified baseline pathogen). A microbiologic response was assessed for each Gram-positive pathogen identified at baseline (i.e., eradication, presumed eradication, persistence, presumed persistence). For patients for whom follow-up cultures were not performed, the microbiologic responses for baseline pathogens were presumed on the basis of the clinical response. Microbiologic response by patient at the EOT and FU visits was graded as success (i.e., all Gram-positive organisms eradicated or presumed eradicated) or failure (i.e., at least one Gram-positive organism persisted or presumed to have persisted, multiple pathogens with partial eradication). At both the EOT and FU visits, colonization and superinfection were assessed. At the FU visit, a patient's bacteriological response could also include recurrence.

S. aureus [1] = assay: Phase II SSTI trial: microbiologic response, S. aureus; format: in vivo, human
Description: as §1

[2] = Phase II SSTI trial: safety (adverse events); set-up: species or system human; settings: in vivo
Description: Each patient who received at least one dose of study drug (ITT population) was evaluated for drug safety through monitoring of adverse events (AE), including abnormal clinical laboratory test results and vital signs. AE were rated by the investigator as to their severity (mild, moderate, severe, life-threatening), and by the relationship to the study drug (not related, unlikely related, possibly related, or probably related).

[3] = system: Gram-positive isolates, including MRSA; assay: Dalbavancin MIC of baseline Gram-positive pathogens (SSTI trial); format: cell-based; settings: for Dalbavancin MIC, Miscellaneous Streptococcus and nontypeable strains: baseline isolates, MITT
Text: The most common pathogen was S. aureus.

[4] = Pharmacokinetics and renal excretion in healthy subjects; format: in vivo, human; settings: single 1000 mg IV
Description: Blood samples were drawn into heparinized tubes and centrifuged. Plasma was separated and stored frozen at −20° C. until time of assay. Plasma and urine samples were assayed for dalbavancin using validated LC/MS/MS methods. […] The peak concentration (Cmax) values were obtained directly from the observed data. The area under the plasma concentration-time curve (AUC) was calculated using the linear trapezoidal rule. Clearance (CL) was computed as dose/AUC. The elimination half life (t1/2) was estimated by linear regression of the log-linear portion of the log concentration versus time curve. Estimates of the volume of distribution (VZ) was calculated using the regression parameters, while the volume of distribution at steady state (Vss) was calculated from the area under the first moment curve (AUMC) multiplied by the dose and divided by AUC. The cumulative amount of dalbavancin excreted in urine was determined as the integrand of the urine excretion rate (AURC). CLR, or renal clearance, was calculated as the ratio: CLR=AURC/AUC.

[5] = Pharmacokinetics in hepatic impairment (VER001-12); format: in vivo, human; settings: 1000 mg Day 1 and 500 mg Day 8, Mean (±SD)
Description: The study enrolled otherwise healthy subjects with mild, moderate, or severe hepatic impairment (Child-Pugh scores 5 to 6, 7 to 9, and 10 to 15, respectively) and matched control subjects with normal hepatic function.

S. aureus [6] = assay: MIC of study organisms (NCCLS microdilution); format: cell-based; settings: for MBC: Staphylococcus aureus
Description: (§2) MICs were determined in MHB by standard NCCLS microdilution techniques. […] All MICs were performed at least in duplicate.

S. pneumoniae [7] = assay: MIC of study organisms (NCCLS microdilution); format: cell-based; settings: five pneumococcal organisms
Description: as §2

S. pneumoniae [8] = assay: Murine thigh-infection model; format: in vivo, mice; settings: for 1 Log Kill mg/kg/72 h / 2 Log Kill mg/kg/72 h: q 72 h regimen; for 1 log kill dose / 2 log kill dose: total dose over 6 days
Description: Each point represents the mean of 4 thighs. Five dose levels, ranging 16-fold were used.
Five different doses (two-fold increases) were used. Study against S. aureus utilized total dose (mg/kg/6 d) levels ranging from 30 to 480 mg/kg/6 d. […] Each point represents the mean of 4 thighs.
Each point represents the mean of four thighs.
Each point represents the mean value from 4 thighs. The static dose, and the doses associated with a 1 and 2 log kill were calculated from the parameters estimated by non-linear regression using the Hill equation.

[9] = in vivo
Description: Safety was evaluated by the collection and analysis of data on adverse events (AEs), clinical laboratory tests, physical examinations, vital signs, and ECGs.

[10] = both, human, in vivo
Description: Male and female subjects between ages 18 and 80 were eligible for enrollment. Subjects had to be within −10% to +50% of ideal body weight for their sex, height, and body frame.
The peak concentrations (Cmax) were obtained directly from the observed data. The area under the plasma concentration-time curve (AUC) were calculated using the linear trapezoidal rule.

[11] = Plasma pharmacokinetics in thigh-infected neutropenic mice; settings: 2.5-80 mg/kg intraperitoneal
Description: Neutropenia in this and all other studies was produced by injections of cyclophosphamide, 150 mg/kg 4 days prior to study, 100 mg/kg 1 day prior to study and 100 mg/kg every 48 h after start of infection until end of study. […] Doses of 2.5, 5, 10, 20, 40, and 80 mg/kg were studied. Drug was administered by intraperitoneal injection of 0.2 ml volume. Blood was removed from groups of three mice by retroorbital aspiration into heparinized capillary tubes at 0.5, 1, 2, 4, 6, 24, 48, 72, and 96 hours after dosing. […] AUC was calculated by the trapezoidal rule from mean concentrations.

[12] = Pharmacokinetics in renal impairment and ESRD (VER001-3, VER001-11, VER001-13)
Description: Clinical Study VER001-13 examined subjects with mild and moderate renal impairment and Clinical Study VER001-11 examined subjects with severe renal impairment and subjects with end-stage renal disease (ESRD). Matched control subjects were enrolled in all studies. […] Subjects with ESRD were dependent on dialysis through the course of the study (3 times weekly).

SMILES: CN[C@H]1C(=O)N[C@@H]2Cc3ccc(cc3)Oc3cc4cc(c3O[C@@H]3O[C@H](C(=O)O)[C@@H](O)[C@H](O)[C@H]3NC(=O)CCCCCCCCC(C)C)Oc3ccc(cc3Cl)[C@@H](O)[C@@H]3NC(=O)[C@H](NC(=O)[C@@H]4NC(=O)[C@@H](NC2=O)c2cc(cc(O)c2Cl)Oc2cc1ccc2O)c1ccc(O)c(c1)-c1c(O[C@H]2O[C@H](CO)[C@@H](O)[C@H](O)[C@@H]2O)cc(O)cc1[C@@H](C(=O)NCCCN(C)C)NC3=O [Dalbavancin]
- effect on metabolism of marker substrates (human hepatic microsomes): did not affect the metabolism of marker substrates
- eradication/presumed eradication rate at FU, all organisms (Gram-positive pathogen; single-dose dalbavancin): 58%
- microbiologic success rate at EOT (Gram-positive pathogen; single-dose dalbavancin): 38.5%
- microbiologic success rate at FU (Gram-positive pathogen; single-dose dalbavancin): 27.3%
- eradication/presumed eradication rate at FU, all organisms (Gram-positive pathogen; two-dose dalbavancin): 92%
- microbiologic success rate at EOT (Gram-positive pathogen; two-dose dalbavancin): 72.7%
- microbiologic success rate at FU (Gram-positive pathogen; two-dose dalbavancin): 72.7%
- S. aureus eradication rate at FU (S. aureus [1]; single-dose dalbavancin): 50%
- S. aureus eradication rate at FU (S. aureus [1]; two-dose dalbavancin): 90%
- premature discontinuation of treatment due to an AE [2]: No dalbavancin-treated patient discontinued treatment prematurely due to an AE
- MICs against Gram-positive isolates, including MRSA (range) ([3]; baseline isolates of the SSTI trial): 0.016 to 0.25 mg/L
- Dalbavancin MIC, Miscellaneous Streptococcus and nontypeable strains ([3]; Single dose Dalbavancin (1100 mg) arm): (0.016)
- Dalbavancin MIC, Miscellaneous Streptococcus and nontypeable strains ([3]; Two-dose Dalbavancin (1000/500 mg) arm): (0.016)
- t1/2 [4]: 9 to 12 days
- t1/2 ([5]; Mild Hepatic Impairment): 323 (27) h
- t1/2 ([5]; Moderate Hepatic Impairment): 320 (24) h
- t1/2 ([5]; Normal Hepatic Function): 321 (24) h
- t1/2 ([5]; Severe Hepatic Impairment): 322 (68) h
- MBC (S. aureus [6]; S. aureus strain 307109): 0.12 µg/mL
- MBC (S. aureus [6]; SA31005): 0.12 µg/mL
- MIC range (S. aureus [6]; six S. aureus isolates): 0.06 to 0.12 µg/mL
- MIC range (S. pneumoniae [7]): 0.004 to 0.03 µg/mL
- 1 Log Kill mg/kg/72 h (S. pneumoniae [8]; Mean ± SD of S. pneumoniae strains): 0.93 ± 0.24 mg/kg/72 h
- 24 h AUC/MIC values lower with every 72 h than every 24 h dosing (S. pneumoniae [8]; S. pneumoniae and S. aureus, static dose, 1 and 2 log kill): 1.3 to 2.4 fold
- 1 Log Kill mg/kg/72 h (S. pneumoniae [8]; SP1199, 6 days of therapy): 0.85 mg/kg/72 h
- 2 Log Kill mg/kg/72 h (S. pneumoniae [8]; SP1199, 6 days of therapy): 0.99 mg/kg/72 h
- 1 Log Kill mg/kg/72 h (S. pneumoniae [8]; SP1325, 6 days of therapy): 0.99 mg/kg/72 h
- 1 Log Kill mg/kg/72 h (S. pneumoniae [8]; SP1396, 6 days of therapy): 0.61 mg/kg/72 h
- 2 Log Kill mg/kg/72 h (S. pneumoniae [8]; SP1396, 6 days of therapy): 0.69 mg/kg/72 h
- 1 log kill dose (S. pneumoniae [8]; SP10813, q 12 h): 2.8 mg/kg
- 2 log kill dose (S. pneumoniae [8]; SP10813, q 12 h): 3.5 mg/kg
- 1 log kill dose (S. pneumoniae [8]; SP10813, q 24 h): 1.54 mg/kg
- 2 log kill dose (S. pneumoniae [8]; SP10813, q 24 h): 1.75 mg/kg
- 1 log kill dose (S. pneumoniae [8]; SP10813, q 72 h): 0.77 mg/kg
- 2 log kill dose (S. pneumoniae [8]; SP10813, q 72 h): 0.82 mg/kg
- 1 Log Kill mg/kg/72 h (S. pneumoniae [8]; SP10813, 6 days of therapy): 0.77 mg/kg/72 h
- 2 Log Kill mg/kg/72 h (S. pneumoniae [8]; SP10813, 6 days of therapy): 0.82 mg/kg/72 h
- drop in cfu over the 6 day study (S. pneumoniae [8]; all strains): > 4 log10
- less drug required against pneumococci than S. aureus, based upon 24 h AUC/MIC (S. pneumoniae [8]; every 24 h dosing): 12 to 23 fold
- free drug 24 h AUC/MIC associated with a static effect (S. pneumoniae [8]; every 72 h dosing, 6 days): 7.2±4.5
- free drug AUC/MIC over the 6 days of therapy required for efficacy (S. pneumoniae [8]; net static effect, 1 or 2 log kill): ~100
- reduction in doses necessary for efficacy in presence of neutrophils (S. pneumoniae [8]; normal vs neutropenic mice, 24-hour dosing, not statistically significant): 1.7- to 2.1 fold
- average difference of effect on QTc values versus vancomycin group ([9]; human): 7 ms
- impact on heart rate, atrioventricular conduction or intra-ventricular conduction [9]: did not exhibit any impact
- AUC ([10]; 500 mg): 24376 ± 6615 µg·h/mL
- AUC14 ([10]; 1000 mg): ~22000′ mg · h/L
- AUC42 ([10]; 1000 mg): 23137 ± 3326 µg·h/mL
- half-life [11]: 0.317 to 0.546 days
- t1/2 ([12]; ESRD Postdialysis, VER001-11, 500 mg): 14.5 days
- t1/2 ([12]; ESRD Predialysis, VER001-11, 500 mg): 15.7 days
- t1/2 ([12]; Mild Renal Impairment, VER001-13, 1000 mg): 16.2 days
- t1/2 ([12]; Moderate Renal Impairment, VER001-13, 1000 mg): 18 days
- t1/2 ([12]; Normal Renal Function, VER001-2, 1120 mg): 6.21 days
- t1/2 ([12]; Normal Renal Function, VER001-11, 500 mg): 13.9 days
- t1/2 ([12]; Normal Renal Function, VER001-13, 1000 mg): 17.4 days
- t1/2 ([12]; Severe Renal Impairment, VER001-11, 500 mg): 18.9 days
- t1/2 ([12]; Severe Renal Impairment, VER001-11, 1000 mg): 19.5 days
- increase in concentrations through the first week post-dose vs normal renal function ([12]; subjects with severe renal impairment (VER001-11)): 40%
